Assays:
11β-HSD1 [1] = target: T1, 11β-HSD1 (Homo sapiens, UniProt P28845); assay: Biological Test Example 4: microsomal 11β-HSD1 in the presence of 50% human plasma; conditions: for Shift: IC50 in Test Example 4 divided by IC50 in Test Example 1
11β-HSD1 [2] = target: T1, 11β-HSD1; assay: biochemical; conditions: for inhibition at 0.1 µM: read-out: Average % inhibition at 100 nM
CYP3A4 = CYP3A4 (Homo sapiens, UniProt P08684); assay: Biological Test Example 6: CYP3A4 inhibition (erythromycin N-demethylation); assay type: in vitro ADME
CYP2C9 = target: T2, CYP2C9 (Homo sapiens, UniProt P11712); assay: Biological Test Example 7: CYP2C9 inhibition (naproxen O-demethylation); assay type: in vitro ADME
T2 construct: purchased Invitrogen 2859; host or cells: insect cells infected with baculovirus (microsomes)

[3] = Biological Test Example 1 IC50 (nM)
[4] = IC50 Range, Biological Test Example 1

CYP3A4, sequence (P08684 whole entry): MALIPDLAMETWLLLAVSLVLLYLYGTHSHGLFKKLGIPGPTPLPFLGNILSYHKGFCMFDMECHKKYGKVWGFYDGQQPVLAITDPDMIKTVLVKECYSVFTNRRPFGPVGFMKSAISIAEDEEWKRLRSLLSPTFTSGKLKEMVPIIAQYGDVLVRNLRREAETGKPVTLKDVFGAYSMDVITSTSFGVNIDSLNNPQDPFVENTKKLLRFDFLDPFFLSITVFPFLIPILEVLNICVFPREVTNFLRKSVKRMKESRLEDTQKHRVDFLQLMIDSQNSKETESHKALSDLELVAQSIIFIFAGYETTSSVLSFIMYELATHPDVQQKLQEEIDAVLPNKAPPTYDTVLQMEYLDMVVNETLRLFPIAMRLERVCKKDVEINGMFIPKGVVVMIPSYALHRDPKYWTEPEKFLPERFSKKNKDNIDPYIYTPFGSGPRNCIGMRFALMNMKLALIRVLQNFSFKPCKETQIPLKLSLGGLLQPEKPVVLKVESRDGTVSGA
T1 sequence (P28845 whole entry): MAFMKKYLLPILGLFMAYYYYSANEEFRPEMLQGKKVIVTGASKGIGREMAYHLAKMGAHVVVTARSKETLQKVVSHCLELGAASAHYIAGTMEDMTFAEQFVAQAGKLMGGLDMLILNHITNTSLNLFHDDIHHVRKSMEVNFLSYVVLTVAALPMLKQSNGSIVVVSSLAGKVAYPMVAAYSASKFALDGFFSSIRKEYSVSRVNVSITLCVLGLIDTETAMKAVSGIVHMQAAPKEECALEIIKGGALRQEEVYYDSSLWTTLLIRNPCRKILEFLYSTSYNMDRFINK
T2 sequence (P11712 whole entry): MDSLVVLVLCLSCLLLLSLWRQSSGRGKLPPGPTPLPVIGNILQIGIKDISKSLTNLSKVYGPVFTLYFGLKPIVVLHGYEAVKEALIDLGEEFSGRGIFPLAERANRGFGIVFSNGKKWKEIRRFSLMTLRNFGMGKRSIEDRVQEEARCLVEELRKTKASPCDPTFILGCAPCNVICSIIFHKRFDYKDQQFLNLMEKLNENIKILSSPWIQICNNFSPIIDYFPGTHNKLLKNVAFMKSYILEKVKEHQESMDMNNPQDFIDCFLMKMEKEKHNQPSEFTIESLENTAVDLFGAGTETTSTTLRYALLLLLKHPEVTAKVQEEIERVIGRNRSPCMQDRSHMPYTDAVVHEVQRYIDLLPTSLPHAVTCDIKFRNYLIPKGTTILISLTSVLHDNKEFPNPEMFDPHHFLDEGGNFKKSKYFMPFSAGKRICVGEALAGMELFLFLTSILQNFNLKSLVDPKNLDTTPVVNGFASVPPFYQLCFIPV

Row | SMILES | IC50 (11β-HSD1 [1]) | IC50 (11β-HSD1 [2]; [3]) | IC50 (11β-HSD1 [2]; [4]) | inhibition at 0.1 µM (11β-HSD1 [2]) | IC50 (CYP3A4) | IC50 (CYP2C9) | Shift (11β-HSD1 [1])
1 | Cc1cc(-c2ccc([C@H](C)N3CC[C@](CCC(N)=O)(c4ccc(F)cc4)OC3=O)cc2)ccn1 [EXAMPLE 78, 3-((R)-6-(4-fluorophenyl)-3-((S)-1-(4-(2-methylpyridin-4-yl)phenyl)ethyl)-2-oxo-1,3-oxazinan-6-yl)propanamide] | 19.8 nM | 1.8 nM | < 100 nM | 95.8% | 7300 nM | – | –
2 | Cc1nc(-c2ccc([C@H](C)N3CC[C@](CC(C)(C)O)(c4ccccc4)OC3=O)cc2)ccc1C#N [EXAMPLE 1, 6-(4-((S)-1-((S)-6-(2-hydroxy-2-methylpropyl)-2-oxo-6-phenyl-1,3-oxazinan-3-yl)ethyl)phenyl)-2-methylnicotinonitrile] | 7.3 nM | 0.7 nM | < 100 nM | 96.4% | 16700 nM | 12900 nM | –
3 | Cc1cc(-c2ccc([C@H](C)N3CC[C@](CCC(N)=O)(c4ccccc4)OC3=O)cc2)ccn1 [EXAMPLE 98, 3-((R)-3-((S)-1-(4-(2-methylpyridin-4-yl)phenyl)ethyl)-2-oxo-6-phenyl-1,3-oxazinan-6-yl)propanamide] | 6.3 nM | 1.4 nM | < 100 nM | 97.8% | 42200 nM | – | –
4 | C[C@@H](c1ccc(-c2ccc(C(=O)NC3CC3)cn2)cc1)N1CC[C@](CC(C)(C)C#N)(c2ccccc2)OC1=O [EXAMPLE 2, 6-(4-((S)-1-((R)-6-(2-cyano-2-methylpropyl)-2-oxo-6-phenyl-1,3-oxazinan-3-yl)ethyl)phenyl)-N-cyclopropylnicotinamide] | 2.9 nM | 0.8 nM | < 100 nM | 99% | – | – | 3.8
5 | C[C@@H](c1ccc(-c2nccs2)cc1)N1CC[C@](CCCO)(c2ccc(F)cc2)OC1=O [EXAMPLE 82, (R)-6-(4-fluorophenyl)-6-(3-hydroxypropyl)-3-((S)-1-(4-(thiazol-2-yl)phenyl)ethyl)-1,3-oxazinan-2-one] | 25.2 nM | 1.8 nM | < 100 nM | 98.1% | – | – | –
6 | C[C@@H](c1ccc(-c2ccccn2)cc1)N1CC[C@](CCO)(c2ccc(F)cc2)OC1=O [EXAMPLE 57, (S)-6-(4-fluorophenyl)-6-(2-hydroxyethyl)-3-((S)-1-(4-(pyridin-2-yl)phenyl)ethyl)-1,3-oxazinan-2-one] | 19.2 nM | 1 nM | < 100 nM | 99.4% | – | – | 18.8
7 | COc1ccc(-c2ccc([C@H](C)N3CC[C@](CCO)(c4ccccc4)OC3=O)cc2)cn1 [EXAMPLE 92, (S)-6-(2-hydroxyethyl)-3-((S)-1-(4-(6-methoxypyridin-3-yl)phenyl)ethyl)-6-phenyl-1,3-oxazinan-2-one] | 12.7 nM | 0.5 nM | < 100 nM | 97.3% | – | – | 23.7
8 | C[C@@H](c1ccc(-c2ccc(C(F)(F)F)cn2)cc1)N1CC[C@](CCCO)(c2ccc(F)cc2)OC1=O [EXAMPLE 109, (R)-6-(4-fluorophenyl)-6-(3-hydroxypropyl)-3-((S)-1-(4-(5-(trifluoromethyl)pyridin-2-yl)phenyl)ethyl)-1,3-oxazinan-2-one] | 31.9 nM | 2.9 nM | < 100 nM | 91.5% | – | – | 11.0
9 | Cc1cc(-c2ccc([C@H](C)N3CC[C@](CCCN(C)S(C)(=O)=O)(c4ccccc4)OC3=O)cc2)ccn1 [EXAMPLE 119, N-methyl-N-(3-((R)-3-((S)-1-(4-(2-methylpyridin-4-yl)phenyl)ethyl)-2-oxo-6-phenyl-1,3-oxazinan-6-yl)propyl)methanesulfonamide] | 29.7 nM | 2 nM | < 100 nM | 90.8% | – | – | 15.1
10 | C[C@@H](c1ccc(-c2cccnc2)cc1)N1CC[C@](CCC(N)=O)(c2ccccc2)OC1=O [EXAMPLE 47, 3-((R)-2-oxo-6-phenyl-3-((S)-1-(4-(pyridin-3-yl)phenyl)ethyl)-1,3-oxazinan-6-yl)propanamide] | 21.4 nM | 2.6 nM | < 100 nM | 91% | – | – | –
11 | Cc1cccc(-c2ccc([C@H](C)N3CC[C@](CCCO)(c4ccccc4)OC3=O)cc2)n1 [EXAMPLE 90, (R)-6-(3-hydroxypropyl)-3-((S)-1-(4-(6-methylpyridin-2-yl)phenyl)ethyl)-6-phenyl-1,3-oxazinan-2-one] | 13.5 nM | 0.5 nM | < 100 nM | 96.7% | – | – | 25.5
12 | Cc1cc(-c2ccc([C@H](C)N3CC[C@](CCC(=O)O)(c4ccc(F)cc4)OC3=O)cc2)ccn1 [EXAMPLE 77, 3-((R)-6-(4-fluorophenyl)-3-((S)-1-(4-(2-methylpyridin-4-yl)phenyl)ethyl)-2-oxo-1,3-oxazinan-6-yl)propanoic acid] | 114 nM | 38.1 nM | < 100 nM | 79.9% | – | – | 3.0
13 | C=CC[C@]1(c2ccc(F)cc2)CCN([C@@H](C)c2ccc(-c3sc(C)nc3C)cc2)C(=O)O1 [EXAMPLE 42, (R)-6-allyl-3-((S)-1-(4-(2,4-dimethylthiazol-5-yl)phenyl)ethyl)-6-(4-fluorophenyl)-1,3-oxazinan-2-one] | 34.3 nM | 1 nM | < 100 nM | 90.9% | – | – | 33.4
14 | Cc1cn(-c2ncc(-c3ccc([C@H](C)N4CC[C@](CC(C)(C)O)(c5ccccc5)OC4=O)cc3)cn2)c(C)n1 [EXAMPLE 26, (S)-3-((S)-1-(4-(2-(2,4-dimethyl-1H-imidazol-1-yl)pyrimidin-5-yl)phenyl)ethyl)-6-(2-hydroxy-2-methylpropyl)-6-phenyl-1,3-oxazinan-2-one] | 6.8 nM | 1.7 nM | < 100 nM | 95.2% | – | – | 4.1
15 | COc1ccc(-c2ccc([C@H](C)N3CC[C@](CCO)(c4ccc(F)cc4)OC3=O)cc2)cn1 [EXAMPLE 63, (S)-6-(4-fluorophenyl)-6-(2-hydroxyethyl)-3-((S)-1-(4-(6-methoxypyridin-3-yl)phenyl)ethyl)-1,3-oxazinan-2-one] | 15.2 nM | 0.8 nM | < 100 nM | 101% | – | – | 18.4

More lines, in order of falling IC50 (11β-HSD1 [1]), values ahead:

Row | IC50 (11β-HSD1 [1]) | IC50 (11β-HSD1 [2]; [3]) | IC50 (11β-HSD1 [2]; [4]) | inhibition at 0.1 µM (11β-HSD1 [2]) | IC50 (CYP3A4) | IC50 (CYP2C9) | Shift (11β-HSD1 [1]) | SMILES
16 | 31.7 nM | 1.4 nM | < 100 nM | 87.2% | – | – | 21.9 | CCOc1cc(-c2ccc([C@H](C)N3CC[C@](CC(C)(C)O)(c4ccccc4)OC3=O)cc2)cc(C)n1 [EXAMPLE 162, (S)-3-((S)-1-(4-(2-ethoxy-6-methylpyridin-4-yl)phenyl)ethyl)-6-(2-hydroxy-2-methylpropyl)-6-phenyl-1,3-oxazinan-2-one]
17 | 12.4 nM | 3.5 nM | < 100 nM | 93.3% | – | – | 3.5 | Cc1nc(C)c(-c2ccc([C@H](C)N3CC[C@](CCC(N)=O)(c4ccc(F)cc4)OC3=O)cc2)s1 [EXAMPLE 84, 3-((R)-3-((S)-1-(4-(2,4-dimethylthiazol-5-yl)phenyl)ethyl)-6-(4-fluorophenyl)-2-oxo-1,3-oxazinan-6-yl)propanamide]
18 | 9.7 nM | 1.3 nM | < 100 nM | 95.6% | – | – | – | COc1ccc(-c2ccc([C@H](C)N3CC[C@](CCC(N)=O)(c4ccc(F)cc4)OC3=O)cc2)cn1 [EXAMPLE 66, 3-((R)-6-(4-fluorophenyl)-3-((S)-1-(4-(6-methoxypyridin-3-yl)phenyl)ethyl)-2-oxo-1,3-oxazinan-6-yl)propanamide]
19 | 9.3 nM | 4.8 nM | < 100 nM | 90.7% | – | – | 1.9 | C[C@@H](c1ccc(-c2cnc(C(C)(C)O)nc2)cc1)N1CC[C@](CC(C)(C)O)(c2ccccc2)OC1=O [EXAMPLE 31, (S)-6-(2-hydroxy-2-methylpropyl)-3-((S)-1-(4-(2-(2-hydroxypropan-2-yl)pyrimidin-5-yl)phenyl)ethyl)-6-phenyl-1,3-oxazinan-2-one]
20 | 7.3 nM | 3.3 nM | < 100 nM | 94.6% | – | – | 2.2 | C[C@@H](c1ccc(-c2cncc(C(N)=O)n2)cc1)N1CC[C@](CC(C)(C)O)(c2ccc(F)cc2)OC1=O [EXAMPLE 159, 6-(4-{1-[6-(4-Fluoro-phenyl)-6-(2-hydroxy-2-methyl-propyl)-2-oxo-[1,3]oxazinan-3-yl]-ethyl}-phenyl)-pyrazine-2-carboxylic acid amide]
21 | 6.5 nM | 2.5 nM | < 100 nM | 94.5% | – | – | 2.6 | Cc1cc(-c2ccc([C@H](C)N3CC[C@](CCCO)(c4ccc(F)cc4)OC3=O)cc2)cc(C)[n+]1[O-] [EXAMPLE 122, 4-(4-((S)-1-((R)-6-(4-fluorophenyl)-6-(3-hydroxypropyl)-2-oxo-1,3-oxazinan-3-yl)ethyl)phenyl)-2,6-dimethylpyridine 1-oxide]
22 | 6.4 nM | 0.6 nM | < 100 nM | 99.6% | – | – | 11.1 | C[C@@H](c1ccc(-c2ccccn2)cc1)N1CC[C@](CC(C)(C)O)(c2ccccc2)OC1=O [EXAMPLE 86, (S)-6-(2-hydroxy-2-methylpropyl)-6-phenyl-3-((S)-1-(4-(pyridin-2-yl)phenyl)ethyl)-1,3-oxazinan-2-one]
23 | 5.7 nM | 1.1 nM | < 100 nM | 96.5% | – | – | – | C[C@@H](c1ccc(-c2cccnc2)cc1)N1CC[C@](CCCO)(c2ccc(F)cc2)OC1=O [EXAMPLE 197, (R)-6-(4-fluorophenyl)-6-(3-hydroxypropyl)-3-((S)-1-(4-(pyridin-3-yl)phenyl)ethyl)-1,3-oxazinan-2-one]

Source: US8569292B2, “Cyclic inhibitors of 11β-hydroxysteroid dehydrogenase 1” (Vitae Pharmaceuticals, Inc., priority 2008, dated 2013)
